Experimental data published in PubChem BioAssay AID977613 (Broad Institute, 2014).
The source made the active and inactive calls. No rule for the calls is given here.

Tested on: Broad 7084-01 inhibitor HTS, set 2
Assay: single-concentration hits, screen 7084 set 2 (AID 977613);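 also: host cells are infected with parasite promastigotes that become internalized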

| Compound | active concentration |
| --- | --- |
| COc1cccc(C(=O)N2C[C@H]3[C@@H](c4ccccc42)[C@H](CO)N3Cc2ccccc2Cl)c1 | < 10 µM |
| Cc1ccc(CN2CC(=O)N3[C@H](C2)[C@@H](c2ccc(-c4ccccc4F)cc2)[C@@H]3CO)cc1 | > 10 µM (inactive) |
| COc1ccc2c3c([nH]c2c1)[C@@H](CO)NCC31CN(Cc2cc(F)ccc2F)C1 | > 10 µM (inactive) |
| C[C@H](NC(=O)[C@H]1[C@H](CO)[C@H]2Cn3c(ccc(/C=C/c4ccccc4)c3=O)[C@@H]1N2)c1ccccc1 | > 10 µM (inactive) |
| COc1cccc(-c2ccc([C@H]3[C@@H](CO)N4C(=O)CN(C(=O)c5cccnc5)C[C@@H]34)cc2)c1 | > 10 µM (inactive) |
| O=C(CC1CC1)N1[C@H](CO)[C@@H](c2ccccc2)C12CN(Cc1cccnc1)C2 | > 10 µM (inactive) |
| O=C(C[C@H]1CC[C@@H]2[C@H](COC[C@H](O)CN2CCC(F)(F)F)O1)NCC1CC1 | > 10 µM (inactive) |
| CC(C)CC#Cc1ccc([C@H]2[C@@H](CO)N3C(=O)CN(S(=O)(=O)c4cccc(F)c4)C[C@@H]23)cc1 | > 10 µM (inactive) |
| O=C(C1CCC1)N1[C@H](CO)[C@@H](c2ccccc2)C12CN(CCC(F)(F)F)C2 | > 10 µM (inactive) |
| COc1ccccc1CN1[C@@H]2CN(C(=O)C3CCCCC3)c3ccccc3[C@@H]2[C@@H]1CO | > 10 µM (inactive) |
| CCC(=O)N1[C@H](CO)[C@H](c2ccccc2)C12CN(C(=O)c1ccc3c(c1)OCO3)C2 | > 10 µM (inactive) |
| O=C(c1ccccn1)N1CC[C@@H]2[C@H](CO)Nc3ccc(Br)cc3[C@@H]21 | > 10 µM (inactive) |
| CCC(=O)N1[C@@H](CO)[C@@H](c2ccccc2)C12CN(C(=O)c1ccc3c(c1)OCO3)C2 | > 10 µM (inactive) |
| CN(C)C(=O)C[C@@H]1CC[C@H]2[C@@H](COC[C@@H](O)CN2CC2CCCC2)O1 | > 10 µM (inactive) |
| CCC(=O)N1CC2(C1)[C@@H](c1ccc(-c3cccc(C)c3)cc1)[C@H](CO)N2S(C)(=O)=O | > 10 µM (inactive) |
| CN(C)CC#Cc1ccc([C@@H]2[C@@H](CO)N3C(=O)CN(C(=O)CN(C)C)C[C@H]23)cc1 | > 10 µM (inactive) |
| COCC(=O)N1[C@@H]2CNc3ccccc3[C@@H]2[C@@H]1CO | > 10 µM (inactive) |
| Cc1nn(C)cc1NC(=O)C[C@H]1CC[C@H]2[C@@H](COc3ccc(NC(=O)C4CCOCC4)cc3C(=O)N2C)O1 | > 10 µM (inactive) |
| CN1[C@@H]2CNc3ccccc3[C@@H]2[C@@H]1CO | > 10 µM (inactive) |
| Cc1ccc(-c2ccccc2[C@H]2[C@@H](C#N)N(c3ncc(-c4ccccc4)s3)[C@@H]2CO)cc1 | > 10 µM (inactive) |
| Cc1cccc(S(=O)(=O)N2C[C@@H](O)COC[C@@H]3O[C@H](CC(=O)Nc4ccccc4)CC[C@H]32)c1 | > 10 µM (inactive) |
| O=C(C[C@@H]1CC[C@@H]2[C@H](COC[C@@H](O)CN2C(=O)Nc2ccc(Cl)c(Cl)c2)O1)NCc1ccc(Cl)cc1 | > 10 µM (inactive) |
| C/C=C/c1ccc([C@@H]2[C@H](CO)N(C(=O)CN(C)C)C23CN(C(=O)C2CCC2)C3)cc1 | > 10 µM (inactive) |
| COCC(=O)N1CC2(CCN(C(=O)c3ccccn3)CC2)c2c(n(C)c3cc(OC)ccc23)[C@H]1CO | > 10 µM (inactive) |
| COc1ccc2c3c([nH]c2c1)[C@H](CO)N(C)CC31CCN(S(=O)(=O)c2ccc(C)cc2)CC1 | > 10 µM (inactive) |
| N#C[C@H]1[C@H](c2ccccc2-c2cccc(F)c2)[C@@H](CO)N1C(=O)CN1CCOCC1 | > 10 µM (inactive) |
| O=C(c1ccccc1F)N1CC(=O)N2[C@@H](CO)[C@@H](c3ccc(C#Cc4ccccc4)cc3)[C@@H]2C1 | > 10 µM (inactive) |
| Cc1ccccc1S(=O)(=O)N1CC[C@@H]2[C@H]1c1cc(C#Cc3ccccc3)ccc1N[C@@H]2CO | > 10 µM (inactive) |
